Common to all, as to test: DTP human tumour cell line panel, 48 h
Assay [1] relates to NCI/ADR-RES.
Assay [2] concerns MDA-MB-435.
In assay [3] the test system is MDA-MB-231.
Assay [4] deals with BT-549.

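Each compound was tested at five concentrations against cells in 96-well plates for 48 hours. GI50 = concentration required for 50% inhibition of growth.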 Calls of active or inactive are those of the source. Rule as the data show it: active = GI50 up to about 1.1 µM and inactive = higher. Starred links: 1 amine or outer side, 2 acyl side, 3 side chain; linkers in the order of their positions; H or OH if unused. Non-standard residues stand in square brackets, D forms with d. Residues, ends and D or L forms follow the SMILES beside them. *: point of attachment. X47 = CCC(=O)CC1CC(C)CC(C(=O)[*:2])N1[*:1]; X46 = CCCCCCCCC(C)C(=O)*; Aib = CC(C)(N)C(=O)O; X48 = CC(CN(C)CCO)N* Bounds are passed on as bounds.

With `O=C(CCc1cccc(O)c1)NCCCNC(=O)CCc1cccc(O)c1`, the GI50 in assay [1], in assay [2], in assay [3] and in assay [4] was > 100 µM (inactive) each time.
`COC(=O)CNS(=O)(=O)c1ccc(-c2c3nc(c(-c4ccc(S(=O)(=O)NCC(=O)OC)cc4)c4ccc([nH]4)c(-c4ccc(S(=O)(=O)NCC(=O)OC)cc4)c4nc(c(-c5ccc(S(=O)(=O)NCC(=O)OC)cc5)c5ccc2[nH]5)C=C4)C=C3)cc1`: the GI50 is > 100 µM (inactive) in assay [1], > 100 µM (inactive) in assay [2], 42.2 µM (inactive) in assay [3] and > 100 µM (inactive) in assay [4].
As for `Oc1ccc(/C=N/c2ccccc2O)cc1`, the GI50 is 75 µM (inactive) in assay [1], 16.9 µM (inactive) in assay [2], 51.1 µM (inactive) in assay [3] and 67.8 µM (inactive) in assay [4].
In the case of `C/C(Cl)=N\OC(=O)Nc1ccc(C)cc1`, the GI50 is 19.7 µM (inactive) in assay [1] and 20.3 µM (inactive) in assay [3].
In the case of `CCCCCCCCC(C)C(=O)N1CCCC1C(=O)N1C(CC(=O)CC)CC(C)CC1C(=O)NC(C)C(=O)NC(C)(C)C(=O)NC(C)(C)C(=O)NC(C(=O)NC(C)C(=O)NC(C)(C)C(=O)NC(C)(C)C(=O)NC(C)CN(C)CCO)C(C)CC` (centres undefined) (X46-P[X47]A[Aib][Aib]IA[Aib][Aib]-X48; configuration not given here), the GI50 is 0.435 µM (active) in assay [1], 1.41 µM (inactive) in assay [2], 0.56 µM (active) in assay [3] and 1.57 µM (inactive) in assay [4].
In the same order, the values of `C=C1c2nc3ccccc3n2C=C(c2ccc(OC)cc2)N1c1ccccc1` are 2.34 µM (inactive), 1.17 µM (inactive), 11.1 µM (inactive) and 6.64 µM (inactive).
In the case of `Cc1cc(C)n(-c2nc3ccccc3c(=O)n2-c2ccccc2)n1`, the GI50 in assay [1], in assay [2] and in assay [3] was > 100 µM (inactive) throughout.
On to `COc1ccc(/C=C/c2cc(O)cc(OC3OC(CO)C(O)C(O)C3O)c2)cc1O` (centres undefined), for which the GI50 was 94 µM (inactive) in assay [1], 82.4 µM (inactive) in assay [2], > 100 µM (inactive) in assay [3] and > 100 µM (inactive) in assay [4].
In the case of `Nc1nc(N)nc(CC(=O)O)n1`, the GI50 in assay [1], in assay [2], in assay [3] and in assay [4] was > 100 µM (inactive) each time.
`O=C1/C(=C\c2cccc(Oc3ccccc3)c2)SC(c2ccccc2)N1c1cc(Cl)ccc1Cl` (centres undefined): the GI50 in assay [1] is 42.6 µM (inactive); in assay [2], 32.3 µM (inactive); in assay [3], 32.4 µM (inactive); in assay [4] it was 36.8 µM (inactive).
As to `CC(=O)OCCOCn1cnc2c(Cl)nc(Cl)nc21`, the GI50 is 24.1 µM (inactive) in assay [1], 17.3 µM (inactive) in assay [2], 15.3 µM (inactive) in assay [3] and 18.7 µM (inactive) in assay [4].
Turning to `OC1C2CN3CCN(C2)CC1(c1ccccc1)C3` (centres undefined), the GI50 in assay [1], in assay [2], in assay [3] and in assay [4] was > 100 µM (inactive) throughout.
As to `COc1ccc2nc3c([N+](=O)[O-])ccc(NCCN(C)C)c3c(N)c2c1`, the figures for the GI50 in assay [1] and in assay [3] were 0.847 µM (active) and 0.234 µM (active), respectively.
For `O=S(=O)(O)c1cc(/N=N/c2c(O)ccc3ccccc23)cc2c(S(=O)(=O)O)cccc12`, the GI50 in assay [1], in assay [2], in assay [3] and in assay [4] was > 100 µM (inactive) throughout.
On to `CCOP(C)(=O)C(Cc1c[nH]c2ccccc12)C(=O)O` (centres undefined), for which the GI50 in assay [1], in assay [2], in assay [3] and in assay [4] was > 100 µM (inactive) each time.
Turning to `O=C1c2ccccc2-n2nnnc2C2CSCN12` (centres undefined), the GI50 in assay [1], in assay [2], in assay [3] and in assay [4] was > 100 µM (inactive) throughout.
`CC(C)(C)O/N=C/c1cc(NC(=S)c2ccsc2)ccc1Cl`: the GI50 was 11.8 µM (inactive) in assay [1], 14.6 µM (inactive) in assay [2], 16.4 µM (inactive) in assay [3] and 13.9 µM (inactive) in assay [4].
On to `COC(=O)/C=C/c1ccc2c(c1)CC1(Cc3ccccc3C1)C2`, for which the GI50 in assay [1] was > 100 µM (inactive); in assay [2], 41.3 µM (inactive); in assay [3], > 100 µM (inactive).
`CSC1(SC2=NCCN2)SC2(NCCN2)S1`: the GI50 in assay [1] is 31.8 µM (inactive); in assay [2] it was 15.4 µM (inactive); in assay [3], 21.1 µM (inactive); in assay [4], 21.4 µM (inactive).
Take `Cc1ccc2c(c1)C(=O)C1(C2)Cc2ccc(C)cc2C1=O`: the GI50 in assay [1], in assay [2] and in assay [3] was > 100 µM (inactive) in each case.
As to `CC(=O)N(C)c1ccc(Nc2ccnc3ccc4nn(C)nc4c23)cc1`, the GI50 was 28.1 µM (inactive) in assay [1], 39.3 µM (inactive) in assay [2] and 31.8 µM (inactive) in assay [4].
On to `N#C/C(=C1/c2cc([N+](=O)[O-])ccc2-c2c1cc([N+](=O)[O-])cc2[N+](=O)[O-])N1CCCCC1`, for which the GI50 was 51.3 µM (inactive) in assay [1], > 100 µM (inactive) in assay [2], > 100 µM (inactive) in assay [3] and > 100 µM (inactive) in assay [4].
Regarding `CC(=NNC(=S)Nc1ccccc1C)c1cccc(C(C)=NNC(=S)Nc2ccccc2C)n1`, the GI50 in assay [1] is 18.6 µM (inactive); in assay [2], 60.4 µM (inactive).
On to `N#Cc1nc(COCCOCc2ccc(F)cc2)oc1N`, for which the GI50 in assay [1], in assay [2], in assay [3] and in assay [4] was > 100 µM (inactive) each time.
`COc1ccc(C2=C(OC(C)=O)c3cccn3-c3ccccc3S2)cc1`: the GI50 in assay [2] is 0.265 µM (active); in assay [3], 0.728 µM (active).
For `COc1cc(OC)cc(Oc2nc3ccc(C(F)(F)F)cc3nc2-c2ccccc2)c1`, the GI50 in assay [1], in assay [2], in assay [3] and in assay [4] was > 100 µM (inactive) each time.
Turning to `COc1ccc(C(SCCO)(c2ccccc2)c2ccc(OC)cc2)cc1`, the GI50 in assay [1] is 15.9 µM (inactive); in assay [2], 5.65 µM (inactive); in assay [3] it was 9.64 µM (inactive); in assay [4], 19.5 µM (inactive).
Regarding `CC(=O)/C(=C/NC(=S)Nc1ccc(Cl)c(Cl)c1)C(=O)Nc1ccccc1C`, the GI50 is 18.7 µM (inactive) in assay [1], 28.3 µM (inactive) in assay [2], 27.8 µM (inactive) in assay [3] and 25.5 µM (inactive) in assay [4].
Regarding `COc1ccc(N2C(=O)C(Cl)C2c2cc3cc(Br)ccc3nc2Cl)cc1` (centres undefined), the GI50 in assay [1] was 5.41 µM (inactive); in assay [2], 4.71 µM (inactive); in assay [3] it was 4.57 µM (inactive); in assay [4] it was 4.46 µM (inactive).
For `COc1ccc(/C=C/C(=N/NC(=O)N/N=C(/C=C/c2ccc(OC)cc2)C(C)(C)CN2CCCCC2)C(C)(C)CN2CCCCC2)cc1`, the figures for the GI50 in assay [1] and in assay [4] were 1.97 µM (inactive) and 1.98 µM (inactive), respectively.
For the compound `CC(C)(C)OC(=O)CC(NC(=O)OC(C)(C)C)C(=O)NC(C(=O)O)C(O)c1ccccc1` (centres undefined), the GI50 was > 100 µM (inactive) in assay [1], > 100 µM (inactive) in assay [2], 65.2 µM (inactive) in assay [3] and > 100 µM (inactive) in assay [4].
With `Sc1ncnc2c1ncn2Cc1ccco1`, the GI50 in assay [1], in assay [2], in assay [3] and in assay [4] was > 100 µM (inactive) each time.
As for `N#CC[C@@H](O)COc1ccccc1`, the GI50 in assay [2], in assay [3] and in assay [4] was > 100 µM (inactive) throughout.
In the case of `C/C(=N/NC(=S)Nc1ccc([N+](=O)[O-])cc1)c1cccc(/C(C)=N\NC(=S)Nc2ccc([N+](=O)[O-])cc2)n1`, the GI50 is 0.469 µM (active) in assay [1], 0.931 µM (active) in assay [2], 0.56 µM (active) in assay [3] and 0.463 µM (active) in assay [4].
Regarding `CN(C)c1ccc(/C=C2\Oc3ccccc3C2=O)cc1`, the GI50 in assay [1] is 68.5 µM (inactive); in assay [2], 56.8 µM (inactive); in assay [3] it was > 100 µM (inactive); in assay [4] it was > 100 µM (inactive).
With `CSS(C)(=O)=O`, the figures for the GI50 in assay [1], in assay [2] and in assay [3] were 58.9 µM (inactive), 20.2 µM (inactive) and 30.8 µM (inactive), respectively.
As for `OC1(C(O)(c2ccc(-c3ccccc3)cc2)c2ccc(-c3ccccc3)cc2)CCCCC1`, the GI50 in assay [1], in assay [2], in assay [3] and in assay [4] was > 100 µM (inactive) throughout.
On to `Cc1nnc2nc(-c3ccc(Cl)cc3Cl)cc(-c3ccc(Cl)cc3)n12`, for which the GI50 was 87.5 µM (inactive) in assay [1], > 100 µM (inactive) in assay [2], 47.5 µM (inactive) in assay [3] and > 100 µM (inactive) in assay [4].
`O=S(=O)(N/N=C1\CC2CCC1C2)c1ccccc1` (centres undefined): the GI50 in assay [1], in assay [2] and in assay [4] was > 100 µM (inactive) throughout.
Take `c1ccc(-c2ccc(-c3ccc(C4=NCCN4)cc3)o2)cc1`: the GI50 in assay [1] is 4.3 µM (inactive); in assay [2], 1.97 µM (inactive); in assay [3], 2 µM (inactive); in assay [4], 6.28 µM (inactive).
As to `CC1(C)NC(C)(C)/C(=N\O)C(=NO)/C1=N/O`, the GI50 in assay [1], in assay [2] and in assay [3] was > 100 µM (inactive) throughout.
In the case of `CCCCCCCCCCCCCCCCCCNc1ccn(C2OC(COP(=O)(O)OCC3OC(n4ccc(N)nc4=O)C(O)C3O)C(O)C2O)c(=O)n1` (centres undefined), the GI50 is 47.1 µM (inactive) in assay [1], > 73.1 µM (inactive) in assay [2], > 100 µM (inactive) in assay [3] and > 49.5 µM (inactive) in assay [4].
On to `COC(=O)C(=O)Nc1cc2c3c(c1)Oc1cccc4c1C3(C)c1c(cccc1O2)O4`, for which the GI50 in assay [1] is 6.56 µM (inactive); in assay [2] it was > 100 µM (inactive); in assay [3], > 100 µM (inactive); in assay [4] it was > 100 µM (inactive).

Usually GI50 stands for the concentration at which growth is held to half of that of the control.

(Values after ChEMBL document CHEMBL1201862, “PubChem BioAssay data set” (2004).)
